The values that follow come from paper PMC8201054, “A Novel Benzopyrane Derivative Targeting Cancer Cell Metabolic and Survival Pathways” (Cancers, 2021).

As a reminder, the IC50 is the midpoint of a concentration-inhibition curve. Lower therefore signals greater potency.

The target of experiment [1] is T1, inositol-3-phosphate synthase (Homo sapiens, UniProt Q9NPH2).
T1 construct: gene ISYNA1
T1 sequence (Q9NPH2 1-558): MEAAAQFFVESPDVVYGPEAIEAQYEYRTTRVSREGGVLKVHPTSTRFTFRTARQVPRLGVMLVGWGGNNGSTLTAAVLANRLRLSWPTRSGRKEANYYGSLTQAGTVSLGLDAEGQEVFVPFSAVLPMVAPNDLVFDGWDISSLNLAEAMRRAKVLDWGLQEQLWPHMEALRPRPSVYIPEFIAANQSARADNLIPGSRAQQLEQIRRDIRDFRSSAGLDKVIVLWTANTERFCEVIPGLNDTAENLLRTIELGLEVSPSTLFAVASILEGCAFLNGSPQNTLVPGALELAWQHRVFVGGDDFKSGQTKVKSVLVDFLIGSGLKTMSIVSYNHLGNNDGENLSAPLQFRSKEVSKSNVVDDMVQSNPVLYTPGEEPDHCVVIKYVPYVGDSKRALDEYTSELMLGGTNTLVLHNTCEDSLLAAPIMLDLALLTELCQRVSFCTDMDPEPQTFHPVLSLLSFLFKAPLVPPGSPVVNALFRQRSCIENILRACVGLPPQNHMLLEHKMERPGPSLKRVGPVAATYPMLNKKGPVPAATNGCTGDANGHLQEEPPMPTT
The experiment in a line: DARTS proteomics in HEK293T lysate ([…]). Type of experiment: cell-based.

Experiment [2] has as its target T2, thioredoxin reductase 1 (TrxR) (Homo sapiens, UniProt Q16881).
T2 construct: gene TXNRD1
T2 sequence (Q16881 1-649): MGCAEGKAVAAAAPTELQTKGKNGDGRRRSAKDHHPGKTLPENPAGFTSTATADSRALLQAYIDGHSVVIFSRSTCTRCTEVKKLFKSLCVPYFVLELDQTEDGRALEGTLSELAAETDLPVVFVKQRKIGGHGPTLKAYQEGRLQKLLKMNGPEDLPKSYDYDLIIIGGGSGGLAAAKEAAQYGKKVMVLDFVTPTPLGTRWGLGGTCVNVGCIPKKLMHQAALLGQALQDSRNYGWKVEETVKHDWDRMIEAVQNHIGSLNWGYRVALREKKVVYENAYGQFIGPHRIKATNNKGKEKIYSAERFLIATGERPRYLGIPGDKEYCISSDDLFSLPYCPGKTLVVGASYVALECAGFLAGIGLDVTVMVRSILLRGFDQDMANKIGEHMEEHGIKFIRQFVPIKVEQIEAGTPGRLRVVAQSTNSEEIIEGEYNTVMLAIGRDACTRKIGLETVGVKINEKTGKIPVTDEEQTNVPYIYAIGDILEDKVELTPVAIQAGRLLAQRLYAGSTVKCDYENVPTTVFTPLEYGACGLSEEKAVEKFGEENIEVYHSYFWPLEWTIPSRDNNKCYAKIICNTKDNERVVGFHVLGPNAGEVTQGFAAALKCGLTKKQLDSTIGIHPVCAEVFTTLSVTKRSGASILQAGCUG
The experiment in a line: DARTS proteomics in HEK293T lysate; TrxR activity assay in lysates of treated HCT116 cells. Format: cell-based.

For `CC1(C)[C@H]2COc3ccc4ccccc4c3[C@H]2N=C2SC(c3ccccc3)=C(c3ccccc3)N21` [SIMR1281, (8aS,14aS)-9,9-dimethyl-11,12-diphenyl-8a,14a-dihydro-8H,9H-benzo[5, 6]chromeno[4,3-d]thiazolo[3,2-a]pyrimidine], in experiment [1], the “DARTS proteomics in HEK293T lysate (0.01-1 μM)” value was “SIMR1281 has shown a concentration-dependent affinity toward the inositol-3-phosphate synthase enzyme in the DARTS proteomic assay”. The compound also returned an IC50 in experiment [2] of 2.42 µM.
